Test results taken from ChEMBL document CHEMBL3991601, “The target landscape of clinical kinase drugs” (Science, 2017).
Counter-ions that a name gives are not always drawn. The source made the active and inactive calls. Rule as the data show it, for most assays here: actives have a measured Kd and inactives only a lower limit.

Columns and labels:
Activin receptor type-1B = target: T1, Activin receptor type-1B (Homo sapiens, UniProt P36896)
T1 sequence (P36896 whole entry): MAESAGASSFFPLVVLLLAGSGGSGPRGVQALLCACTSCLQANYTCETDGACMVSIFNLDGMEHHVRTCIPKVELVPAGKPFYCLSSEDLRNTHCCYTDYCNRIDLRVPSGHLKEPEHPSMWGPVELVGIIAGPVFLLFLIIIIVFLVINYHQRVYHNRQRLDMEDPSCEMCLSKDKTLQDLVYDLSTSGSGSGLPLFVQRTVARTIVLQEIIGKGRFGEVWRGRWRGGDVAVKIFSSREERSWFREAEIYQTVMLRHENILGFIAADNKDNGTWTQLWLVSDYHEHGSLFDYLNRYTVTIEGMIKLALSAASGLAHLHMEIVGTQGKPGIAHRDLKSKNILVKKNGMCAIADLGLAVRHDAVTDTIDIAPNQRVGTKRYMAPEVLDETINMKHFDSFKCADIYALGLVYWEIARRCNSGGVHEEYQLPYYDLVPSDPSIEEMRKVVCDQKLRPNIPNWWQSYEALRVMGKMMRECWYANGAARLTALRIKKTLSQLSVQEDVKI

Ephrin type-B receptor 2 = target: T2, Ephrin type-B receptor 2 (Homo sapiens, UniProt P29323)
T2 sequence (P29323 whole entry): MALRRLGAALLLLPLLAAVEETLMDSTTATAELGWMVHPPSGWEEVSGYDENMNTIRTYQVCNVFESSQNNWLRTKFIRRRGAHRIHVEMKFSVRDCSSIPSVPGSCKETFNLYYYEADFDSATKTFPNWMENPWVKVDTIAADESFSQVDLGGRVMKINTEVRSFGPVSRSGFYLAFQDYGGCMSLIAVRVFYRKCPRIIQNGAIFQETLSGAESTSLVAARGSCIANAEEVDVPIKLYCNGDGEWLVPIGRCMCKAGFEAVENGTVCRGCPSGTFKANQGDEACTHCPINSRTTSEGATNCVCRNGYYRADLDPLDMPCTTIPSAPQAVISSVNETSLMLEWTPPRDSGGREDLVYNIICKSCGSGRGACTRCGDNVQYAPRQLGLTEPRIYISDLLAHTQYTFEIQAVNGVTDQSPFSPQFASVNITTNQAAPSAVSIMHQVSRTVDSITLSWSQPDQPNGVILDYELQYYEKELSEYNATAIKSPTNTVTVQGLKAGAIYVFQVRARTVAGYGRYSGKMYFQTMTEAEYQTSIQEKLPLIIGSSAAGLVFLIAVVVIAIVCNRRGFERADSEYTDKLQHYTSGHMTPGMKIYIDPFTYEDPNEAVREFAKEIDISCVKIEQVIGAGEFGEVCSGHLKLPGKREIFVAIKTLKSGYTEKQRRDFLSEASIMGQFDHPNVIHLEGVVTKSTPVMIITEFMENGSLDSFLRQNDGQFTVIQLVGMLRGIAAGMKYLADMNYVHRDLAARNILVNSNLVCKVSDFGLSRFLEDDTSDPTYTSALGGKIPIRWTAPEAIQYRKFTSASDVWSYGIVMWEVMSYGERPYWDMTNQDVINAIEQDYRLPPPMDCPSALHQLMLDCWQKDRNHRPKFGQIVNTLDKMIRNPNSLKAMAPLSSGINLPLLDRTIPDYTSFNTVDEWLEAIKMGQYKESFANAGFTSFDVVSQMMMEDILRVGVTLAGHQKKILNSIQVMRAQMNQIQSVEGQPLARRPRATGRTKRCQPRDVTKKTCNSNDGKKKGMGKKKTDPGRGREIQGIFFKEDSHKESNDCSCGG

[1] = target: Tyrosine-protein kinase HCK (Homo sapiens, UniProt P08631)
Chain of Tyrosine-protein kinase HCK (P08631 whole entry): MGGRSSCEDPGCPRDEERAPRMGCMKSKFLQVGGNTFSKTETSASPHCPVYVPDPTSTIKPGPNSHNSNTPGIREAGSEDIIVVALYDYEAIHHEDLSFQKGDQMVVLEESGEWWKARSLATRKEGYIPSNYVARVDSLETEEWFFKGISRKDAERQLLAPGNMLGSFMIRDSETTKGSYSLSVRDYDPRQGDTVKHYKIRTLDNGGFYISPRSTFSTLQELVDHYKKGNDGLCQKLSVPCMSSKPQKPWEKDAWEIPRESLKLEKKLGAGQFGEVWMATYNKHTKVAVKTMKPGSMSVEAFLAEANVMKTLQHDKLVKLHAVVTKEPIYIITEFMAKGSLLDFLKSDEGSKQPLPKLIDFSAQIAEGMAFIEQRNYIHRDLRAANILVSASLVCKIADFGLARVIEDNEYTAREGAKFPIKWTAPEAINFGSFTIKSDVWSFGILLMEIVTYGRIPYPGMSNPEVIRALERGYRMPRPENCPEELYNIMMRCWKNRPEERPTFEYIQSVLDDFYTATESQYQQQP

[2] = target: T3, cGMP-dependent protein kinase 1 (Homo sapiens, UniProt Q13976)
T3 sequence (Q13976 whole entry): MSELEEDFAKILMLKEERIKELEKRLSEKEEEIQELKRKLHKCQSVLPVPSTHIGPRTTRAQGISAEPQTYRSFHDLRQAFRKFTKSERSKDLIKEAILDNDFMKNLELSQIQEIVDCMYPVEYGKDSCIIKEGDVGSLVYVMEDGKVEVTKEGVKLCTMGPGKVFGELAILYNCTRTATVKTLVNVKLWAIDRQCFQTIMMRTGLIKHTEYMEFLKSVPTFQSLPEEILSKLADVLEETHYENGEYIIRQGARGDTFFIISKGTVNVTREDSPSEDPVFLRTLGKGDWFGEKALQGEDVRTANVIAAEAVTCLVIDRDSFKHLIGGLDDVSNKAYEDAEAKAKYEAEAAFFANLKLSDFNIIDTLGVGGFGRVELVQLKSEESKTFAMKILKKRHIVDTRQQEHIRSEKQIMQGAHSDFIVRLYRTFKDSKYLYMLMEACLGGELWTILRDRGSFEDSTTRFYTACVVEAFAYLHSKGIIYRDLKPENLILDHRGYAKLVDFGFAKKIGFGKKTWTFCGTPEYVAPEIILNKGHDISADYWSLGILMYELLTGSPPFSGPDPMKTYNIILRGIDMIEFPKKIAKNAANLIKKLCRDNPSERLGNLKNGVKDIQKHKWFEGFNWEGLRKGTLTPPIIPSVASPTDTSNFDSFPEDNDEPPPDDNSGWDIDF

[3] = target: 26S proteasome regulatory subunit 6B (Homo sapiens, UniProt P43686)
Chain of 26S proteasome regulatory subunit 6B (P43686 whole entry): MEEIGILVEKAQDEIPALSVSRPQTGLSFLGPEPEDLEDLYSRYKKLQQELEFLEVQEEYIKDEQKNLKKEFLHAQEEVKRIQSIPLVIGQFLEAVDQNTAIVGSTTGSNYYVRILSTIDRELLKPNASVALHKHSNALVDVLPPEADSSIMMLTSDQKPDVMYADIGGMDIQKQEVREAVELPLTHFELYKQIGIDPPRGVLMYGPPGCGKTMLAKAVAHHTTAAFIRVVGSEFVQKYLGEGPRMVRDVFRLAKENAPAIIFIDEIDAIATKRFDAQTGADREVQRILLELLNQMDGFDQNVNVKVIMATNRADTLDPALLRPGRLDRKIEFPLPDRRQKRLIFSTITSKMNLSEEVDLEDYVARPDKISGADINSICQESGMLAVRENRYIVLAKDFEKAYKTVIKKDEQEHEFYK

[4] = target: Serine/threonine-protein kinase SIK2 (Homo sapiens, UniProt Q9H0K1)
Chain of Serine/threonine-protein kinase SIK2 (Q9H0K1 whole entry): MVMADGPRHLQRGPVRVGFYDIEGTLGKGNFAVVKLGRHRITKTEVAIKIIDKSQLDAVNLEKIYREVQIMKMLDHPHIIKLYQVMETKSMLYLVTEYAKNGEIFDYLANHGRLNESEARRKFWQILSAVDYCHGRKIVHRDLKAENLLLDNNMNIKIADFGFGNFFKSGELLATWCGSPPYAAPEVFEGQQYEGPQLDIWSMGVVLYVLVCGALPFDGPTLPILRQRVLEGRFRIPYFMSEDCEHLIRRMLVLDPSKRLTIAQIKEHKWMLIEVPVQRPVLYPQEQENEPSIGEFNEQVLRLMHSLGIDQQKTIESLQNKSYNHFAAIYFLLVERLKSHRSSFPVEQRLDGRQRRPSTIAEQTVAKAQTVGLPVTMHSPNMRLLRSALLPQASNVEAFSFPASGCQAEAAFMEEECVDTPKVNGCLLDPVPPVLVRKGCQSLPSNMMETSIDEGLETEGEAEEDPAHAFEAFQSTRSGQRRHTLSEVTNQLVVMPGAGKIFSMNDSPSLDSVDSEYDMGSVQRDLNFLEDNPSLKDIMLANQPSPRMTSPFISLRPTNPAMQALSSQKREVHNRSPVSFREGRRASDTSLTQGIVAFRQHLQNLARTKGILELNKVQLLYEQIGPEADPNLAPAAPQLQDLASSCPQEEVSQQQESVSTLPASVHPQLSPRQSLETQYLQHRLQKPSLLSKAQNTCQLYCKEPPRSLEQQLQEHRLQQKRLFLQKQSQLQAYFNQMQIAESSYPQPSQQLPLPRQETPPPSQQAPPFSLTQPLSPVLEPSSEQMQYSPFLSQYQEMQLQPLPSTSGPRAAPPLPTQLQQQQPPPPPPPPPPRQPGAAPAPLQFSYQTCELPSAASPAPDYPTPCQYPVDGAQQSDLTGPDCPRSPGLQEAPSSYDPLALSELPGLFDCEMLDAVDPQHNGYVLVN
Also: in the data inactive means no Kd found up to 30 µM.

Row | Kd (Activin receptor type-1B) | Kd (Ephrin type-B receptor 2) | Kd [1] | Kd [2] | Kd [3] | Kd [4] | Compound
1 | > 30 µM (inactive) | > 30 µM (inactive) | > 30 µM (inactive) | > 30 µM (inactive) | > 30 µM (inactive) | > 30 µM (inactive) | CCn1c(C(=O)N(C2CC2)C2CC2)cc2c3c(ncn3C)c(Nc3cc(C)n(C)n3)nc21 [BMS-911543]
2 | > 30 µM (inactive) | > 30 µM (inactive) | > 30 µM (inactive) | > 30 µM (inactive) | > 30 µM (inactive) | > 30 µM (inactive) | COc1cc2ncnc(Oc3cccc(NC(=O)Nc4cc(C(C)(C)C(F)(F)F)on4)c3)c2cc1OC [CEP-32496]
3 | > 30 µM (inactive) | > 30 µM (inactive) | > 30 µM (inactive) | > 30 µM (inactive) | > 30 µM (inactive) | > 30 µM (inactive) | C#Cc1cccc(Nc2ncnc3cc(OC)c(OCCCCCCC(=O)NO)cc23)c1 [CUDC-101]
4 | 1.21 µM (active) | > 30 µM (inactive) | > 30 µM (inactive) | > 30 µM (inactive) | > 30 µM (inactive) | 0.685 µM (active) | CCn1cc(-c2ccnc3[nH]c(-c4cccc(CN(C)C)c4)cc23)c(-c2ccc(NC(=O)N(C)C)cc2)n1 [GSK-1070916]
5 | > 30 µM (inactive) | > 30 µM (inactive) | > 30 µM (inactive) | > 30 µM (inactive) | > 30 µM (inactive) | > 30 µM (inactive) | COc1ccc(S(=O)(=O)N(C(C)=O)c2ccccc2/C=C/c2cc[n+]([O-])cc2)cc1 [HMN-214]
6 | > 30 µM (inactive) | > 30 µM (inactive) | > 30 µM (inactive) | > 30 µM (inactive) | > 30 µM (inactive) | > 30 µM (inactive) | NC1(c2ccc(-c3nc4ccn5c(=O)[nH]nc5c4cc3-c3ccccc3)cc2)CCC1 [MK-2206]
7 | > 30 µM (inactive) | > 30 µM (inactive) | > 30 µM (inactive) | > 30 µM (inactive) | > 30 µM (inactive) | > 30 µM (inactive) | CN(C[C@@H]1COCCO1)S(=O)(=O)Nc1ccc2ccc3ncc(-c4cnn(C)c4)cc3c(=O)c2c1 [MK-2461]
8 | > 30 µM (inactive) | > 30 µM (inactive) | > 30 µM (inactive) | > 30 µM (inactive) | > 30 µM (inactive) | > 30 µM (inactive) | Cn1cc(-c2cnc3ccc4ccc(CS(=O)(=O)NCc5ccccn5)cc4c(=O)c3c2)cn1 [MK-8033]

More lines, now with the values behind:

Row | Compound | Kd (Activin receptor type-1B) | Kd (Ephrin type-B receptor 2) | Kd [1] | Kd [2] | Kd [3] | Kd [4]
9 | Cc1cc(Nc2ncc(Cl)c(Nc3ccccc3S(=O)(=O)C(C)C)n2)c(OC(C)C)cc1C1CCNCC1 [CERITINIB] | > 30 µM (inactive) | > 30 µM (inactive) | > 30 µM (inactive) | > 30 µM (inactive) | > 30 µM (inactive) | > 30 µM (inactive)
10 | COc1c(OCCCN2CCOCC2)ccc2c1N=C(NC(=O)c1cnc(N)nc1)N1CCN=C21 [COPANLISIB] | > 30 µM (inactive) | > 30 µM (inactive) | > 30 µM (inactive) | > 30 µM (inactive) | > 30 µM (inactive) | > 30 µM (inactive)
11 | COCC(=O)NC/C=C/c1ccc2ncnc(Nc3ccc(Oc4ccc(C)nc4)c(C)c3)c2c1 [CP-724714] | > 30 µM (inactive) | > 30 µM (inactive) | > 30 µM (inactive) | > 30 µM (inactive) | > 30 µM (inactive) | > 30 µM (inactive)
12 | CCS(=O)(=O)N1CCN(c2ccc(Nc3ncc(C(N)=O)c(NC4CC4)n3)cc2)CC1 [Cerdulatinib Hydrochloride] | > 30 µM (inactive) | > 30 µM (inactive) | > 30 µM (inactive) | > 30 µM (inactive) | > 30 µM (inactive) | 0.128 µM (active)
13 | CC(C)(C)c1nc(-c2cccc(NS(=O)(=O)c3c(F)cccc3F)c2F)c(-c2ccnc(N)n2)s1 [DABRAFENIB] | 0.601 µM (active) | > 30 µM (inactive) | 1.65 µM | > 30 µM (inactive) | > 30 µM (inactive) | 0.649 µM (active)
14 | Cc1nc2cc(-n3ncc(C(=O)c4cc5ccccc5[nH]4)c3N)ccc2[nH]1 [FGFR INHIBITOR DEBIO 1347] | > 30 µM (inactive) | > 30 µM (inactive) | > 30 µM (inactive) | > 30 µM (inactive) | > 30 µM (inactive) | > 30 µM (inactive)
15 | O=C(Nc1nc2cccc(-c3ccc(CN4CCS(=O)(=O)CC4)cc3)n2n1)C1CC1 [FILGOTINIB] | > 30 µM (inactive) | > 30 µM (inactive) | > 30 µM (inactive) | > 30 µM (inactive) | > 30 µM (inactive) | > 30 µM (inactive)
16 | Cc1cccc(-c2nn3c(c2-c2ccnc4ccc(C(N)=O)cc24)CCC3)n1 [GALUNISERTIB] | 0.016 µM (active) | > 30 µM (inactive) | > 30 µM (inactive) | > 30 µM (inactive) | > 30 µM (inactive) | > 30 µM (inactive)
17 | O=C(Nc1cc(C(F)(F)F)cc(C(F)(F)F)c1)c1cc(Cl)ccc1O [IMD-0354] | > 30 µM (inactive) | > 30 µM (inactive) | > 30 µM (inactive) | > 30 µM (inactive) | > 30 µM (inactive) | > 30 µM (inactive)
18 | CNC(=O)c1cccc2cc(Oc3ccnc4cc(OCC5(N)CC5)c(OC)cc34)ccc12 [LUCITANIB] | > 30 µM (inactive) | > 30 µM (inactive) | > 30 µM (inactive) | > 30 µM (inactive) | > 30 µM (inactive) | > 30 µM (inactive)
19 | CNC(=O)c1nn(C)c2c1C(C)(C)Cc1cnc(Nc3ccc(N4CCN(C)CC4)cc3)nc1-2 [MILCICLIB] | > 30 µM (inactive) | 0.767 µM (active) | 1.32 µM (active) | > 30 µM (inactive) | > 30 µM (inactive) | 0.11 µM (active)
20 | FC(F)(F)c1ccc(/C=C/c2nc(COc3ccc(CCCCn4ccnn4)cc3)co2)cc1 [MUBRITINIB] | > 30 µM (inactive) | > 30 µM (inactive) | > 30 µM (inactive) | > 30 µM (inactive) | > 30 µM (inactive) | > 30 µM (inactive)
21 | COc1ncc(-c2ccc3nccc(-c4ccnnc4)c3c2)cc1NS(=O)(=O)c1ccc(F)cc1F [OMIPALISIB] | > 30 µM (inactive) | > 30 µM (inactive) | > 30 µM (inactive) | > 30 µM (inactive) | > 30 µM (inactive) | > 30 µM (inactive)
22 | CCCCCCCCCCCCCCCCCCOP(=O)([O-])OC1CC[N+](C)(C)CC1 [PERIFOSINE] | > 30 µM (inactive) | > 30 µM (inactive) | > 30 µM (inactive) | > 30 µM (inactive) | > 30 µM (inactive) | > 30 µM (inactive)
